The results in this text go back to PubChem BioAssay (NCI).

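Dose response: 5 concentrations. Exposure: 48 h. Format: 96-well plates. Endpoint: linear interpolation; highest concentration if not reached. Abbreviation: GI50, concentration required for 50% inhibition of growth. At the TGI there is no net growth.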 A value given as a limit tells only on which side of the number the result lay.

Among the test systems are LXFL 529 NSCLC; KM20L2 colon; M19-MEL melanoma; SNB-78 CNS; HOP-18 NSCLC; DMS 114 small cell lung; RXF-631 renal; SN12K1 renal; P388 leukemia; NCI/ADR-RES ovarian; P388/ADR leukemia.
What all share (test): NCI tumour cell line growth inhibition, 48 h

For the compound `CCOC(=O)C1(c2ccccc2)CCC(=O)CC1`, the TGI in the experiment with LXFL 529 NSCLC, with KM20L2 colon, with M19-MEL melanoma, in the experiment with SNB-78 CNS, in the experiment on HOP-18 NSCLC and in the experiment with DMS 114 small cell lung was > 100 µM throughout. Further, the TGI in the experiment with RXF-631 renal is > 100 µM.
With `CC(=O)n1c2c(c(=O)n1-c1ccccc1)S(=O)CCC2` (centres undefined), the TGI in the experiment on LXFL 529 NSCLC, with KM20L2 colon, in the experiment with M19-MEL melanoma, with SNB-78 CNS, in the experiment with DMS 114 small cell lung and in the experiment with RXF-631 renal was > 100 µM in each case.
Turning to `CCCCCCC[CH2][Sn]1([CH2]CCCCCCC)[O]C(=O)c2cccnc2[S]1`, the GI50 with LXFL 529 NSCLC, in the experiment on KM20L2 colon, with M19-MEL melanoma, with SNB-78 CNS, with DMS 114 small cell lung and in the experiment on RXF-631 renal was > 100 µM throughout. In addition, the TGI with LXFL 529 NSCLC, with KM20L2 colon, in the experiment on M19-MEL melanoma, in the experiment with SNB-78 CNS, in the experiment with DMS 114 small cell lung and with RXF-631 renal was > 100 µM throughout.
Turning to `COc1ccc(-c2cc(-c3ccccc3)c(C#N)c(=O)n2C2OC(CO)C(O)C(O)C2O)cc1` (centres undefined), the TGI in the experiment on LXFL 529 NSCLC, with KM20L2 colon, in the experiment on M19-MEL melanoma, in the experiment with SNB-78 CNS, with HOP-18 NSCLC and in the experiment on DMS 114 small cell lung was > 100 µM each time. In the experiment on RXF-631 renal, the TGI is > 100 µM.
On to `COC(=O)[C@]1(C)CCCC2(C)C1CC[C@H]1C=C(C)[C@H]3CCC12C3` (some centres undefined), for which the TGI in the experiment on LXFL 529 NSCLC, in the experiment on KM20L2 colon, with SNB-78 CNS, with DMS 114 small cell lung and in the experiment on RXF-631 renal was > 100 µM each time.
As to `Cc1ccc(NC(=O)C2C(=O)N(c3ccc(C)c(C)c3)C(=O)C2N=N)cc1C` (centres undefined), the TGI with LXFL 529 NSCLC, with KM20L2 colon, in the experiment with M19-MEL melanoma, in the experiment with SNB-78 CNS, in the experiment on HOP-18 NSCLC and in the experiment on DMS 114 small cell lung was > 100 µM in each case. Besides, in the experiment on RXF-631 renal, the TGI is > 100 µM.
Consider `COc1ccc2oc(-c3cccnc3)cc(=O)c2c1`, for which the TGI in the experiment with LXFL 529 NSCLC, in the experiment on M19-MEL melanoma, in the experiment with DMS 114 small cell lung and with RXF-631 renal was > 100 µM in each case.
In the case of `O=c1[nH]cc(COCCO)c(=O)[nH]1`, the TGI with LXFL 529 NSCLC, with KM20L2 colon, in the experiment on M19-MEL melanoma, with SNB-78 CNS, in the experiment with HOP-18 NSCLC and in the experiment on DMS 114 small cell lung was > 100 µM throughout. For the same compound, in the experiment on RXF-631 renal, the TGI is > 100 µM.
On to `O=C1[C@@H]2C3c4ccccc4C([C@@H]2C(=O)N1c1ccccc1)S3(=O)=O`, for which the TGI with LXFL 529 NSCLC, in the experiment on KM20L2 colon, with M19-MEL melanoma, with SNB-78 CNS, with HOP-18 NSCLC and in the experiment with DMS 114 small cell lung was > 100 µM throughout. Also, in the experiment with RXF-631 renal, the TGI was > 100 µM.
Regarding `O=C(O)[C@H](NS(=O)(=O)c1ccc2ccccc2c1)c1ccccc1`, the TGI in the experiment with LXFL 529 NSCLC, in the experiment on KM20L2 colon, with M19-MEL melanoma, in the experiment on HOP-18 NSCLC and in the experiment with RXF-631 renal was > 100 µM in each case.
On to `O=C1CC(C[C@H](O)C2CCCCC2O)CC(=O)N1Cc1ccccc1` (some centres undefined), for which the TGI in the experiment on LXFL 529 NSCLC, with KM20L2 colon, in the experiment on M19-MEL melanoma, with SNB-78 CNS, in the experiment with HOP-18 NSCLC and with RXF-631 renal was > 100 µM each time.
Consider `CCOc1ccc(N2C(=O)/C(=C/c3ccc(N(CCC#N)CCC#N)cc3)N=C2c2cc([N+](=O)[O-])ccc2Cl)cc1`, for which the TGI in the experiment on LXFL 529 NSCLC is 95 µM; in the experiment with M19-MEL melanoma, 66.5 µM; in the experiment on SNB-78 CNS it was > 100 µM; with HOP-18 NSCLC it was > 100 µM; with DMS 114 small cell lung, > 100 µM; with RXF-631 renal it was > 100 µM.
`CCOC(=O)C(C)(C)Oc1ccc2c(C)c(-c3ccc(Cl)cc3)c(=O)oc2c1`: the TGI in the experiment on LXFL 529 NSCLC, with KM20L2 colon, in the experiment on M19-MEL melanoma, in the experiment on DMS 114 small cell lung and in the experiment on RXF-631 renal was > 100 µM each time.
For `O=c1n(-c2ccccc2)c(=O)n2n1C1C=CC2C2C(C1)C2(Cl)Cl` (centres undefined), the TGI in the experiment on LXFL 529 NSCLC, in the experiment on KM20L2 colon, in the experiment with M19-MEL melanoma, in the experiment with SNB-78 CNS, in the experiment on DMS 114 small cell lung and in the experiment with RXF-631 renal was > 100 µM each time.
As for `CC(=O)O[C@H]1CCC2[C@@H]3CCC4=C(O)c5nocc5C[C@]4(C)C3CC[C@@]21C` (some centres undefined), the TGI with LXFL 529 NSCLC, with KM20L2 colon, in the experiment with M19-MEL melanoma, in the experiment on SNB-78 CNS, in the experiment on HOP-18 NSCLC and in the experiment with DMS 114 small cell lung was > 100 µM throughout.
For `N=c1ccn2c(n1)OC1C(O)C(CO)OC12` (centres undefined), the TGI in the experiment with KM20L2 colon is > 562 µM; in the experiment on SN12K1 renal it was > 1000 µM; in the experiment on P388 leukemia, 4.37 µM; with NCI/ADR-RES ovarian, > 753 µM; in the experiment on M19-MEL melanoma, > 1000 µM; in the experiment on SNB-78 CNS, > 1000 µM. Besides, the TGI is > 662 µM in the experiment with HOP-18 NSCLC, > 163 µM in the experiment on DMS 114 small cell lung and 5.13 µM in the experiment with P388/ADR leukemia. Also, the GI50 in the experiment on NCI/ADR-RES ovarian was 0.659 µM.
On to `O=C(NCCCCN=c1cccccc1NCCCCNC(=O)OCc1ccccc1)OCc1ccccc1`, for which the TGI worked out at 26.1 µM with KM20L2 colon; 39.3 µM in the experiment with M19-MEL melanoma; 71.1 µM in the experiment with SNB-78 CNS; 29.4 µM in the experiment with DMS 114 small cell lung; 26.1 µM with RXF-631 renal.
As for `Cc1ccc(S(=O)(=O)N/N=C/c2oc(-c3ccncc3)c(-c3ccncc3)c2[N+](=O)[O-])cc1`, the TGI in the experiment on LXFL 529 NSCLC, in the experiment on KM20L2 colon, in the experiment with M19-MEL melanoma, in the experiment with SNB-78 CNS, with HOP-18 NSCLC and in the experiment with RXF-631 renal was > 100 µM in each case.
`CCC1C2C=CC(CC2)N1S(=O)(=O)c1ccc(C)cc1` (centres undefined): the TGI in the experiment with LXFL 529 NSCLC was 55.5 µM; in the experiment with KM20L2 colon it was 38.2 µM; with M19-MEL melanoma, > 100 µM; with DMS 114 small cell lung, 58.1 µM; in the experiment on RXF-631 renal it was > 100 µM.
In the case of `CCOC(=O)NC(=O)c1cn(CCOC(=O)NCCCCCCNC(=O)OCCn2cc(C(=O)NC(=O)OCC)c(=O)[nH]c2=O)c(=O)[nH]c1=O`, the TGI with LXFL 529 NSCLC, in the experiment with KM20L2 colon, in the experiment on M19-MEL melanoma, with SNB-78 CNS, in the experiment on HOP-18 NSCLC and with DMS 114 small cell lung was > 100 µM throughout.
As for `O=[N+]([O-])c1ccc(-n2nnc(C3=NCCN3)c2-c2ccc(Cl)cc2)cc1`, the TGI in the experiment with LXFL 529 NSCLC, with KM20L2 colon, in the experiment on M19-MEL melanoma, with SNB-78 CNS, in the experiment on HOP-18 NSCLC and in the experiment with DMS 114 small cell lung was > 100 µM in each case.
